Measured values reported in the Kinase Knowledgebase extract (Sharma et al. 2016).

How the values were obtained:
EGFR (human) [1] = target: EGFR (human) (UniProt P00533); conditions: hn5
EGFR (human) [2] = target: EGFR (human) (UniProt P00533)

Sequence of EGFR (human) (P00533 whole entry, looked up): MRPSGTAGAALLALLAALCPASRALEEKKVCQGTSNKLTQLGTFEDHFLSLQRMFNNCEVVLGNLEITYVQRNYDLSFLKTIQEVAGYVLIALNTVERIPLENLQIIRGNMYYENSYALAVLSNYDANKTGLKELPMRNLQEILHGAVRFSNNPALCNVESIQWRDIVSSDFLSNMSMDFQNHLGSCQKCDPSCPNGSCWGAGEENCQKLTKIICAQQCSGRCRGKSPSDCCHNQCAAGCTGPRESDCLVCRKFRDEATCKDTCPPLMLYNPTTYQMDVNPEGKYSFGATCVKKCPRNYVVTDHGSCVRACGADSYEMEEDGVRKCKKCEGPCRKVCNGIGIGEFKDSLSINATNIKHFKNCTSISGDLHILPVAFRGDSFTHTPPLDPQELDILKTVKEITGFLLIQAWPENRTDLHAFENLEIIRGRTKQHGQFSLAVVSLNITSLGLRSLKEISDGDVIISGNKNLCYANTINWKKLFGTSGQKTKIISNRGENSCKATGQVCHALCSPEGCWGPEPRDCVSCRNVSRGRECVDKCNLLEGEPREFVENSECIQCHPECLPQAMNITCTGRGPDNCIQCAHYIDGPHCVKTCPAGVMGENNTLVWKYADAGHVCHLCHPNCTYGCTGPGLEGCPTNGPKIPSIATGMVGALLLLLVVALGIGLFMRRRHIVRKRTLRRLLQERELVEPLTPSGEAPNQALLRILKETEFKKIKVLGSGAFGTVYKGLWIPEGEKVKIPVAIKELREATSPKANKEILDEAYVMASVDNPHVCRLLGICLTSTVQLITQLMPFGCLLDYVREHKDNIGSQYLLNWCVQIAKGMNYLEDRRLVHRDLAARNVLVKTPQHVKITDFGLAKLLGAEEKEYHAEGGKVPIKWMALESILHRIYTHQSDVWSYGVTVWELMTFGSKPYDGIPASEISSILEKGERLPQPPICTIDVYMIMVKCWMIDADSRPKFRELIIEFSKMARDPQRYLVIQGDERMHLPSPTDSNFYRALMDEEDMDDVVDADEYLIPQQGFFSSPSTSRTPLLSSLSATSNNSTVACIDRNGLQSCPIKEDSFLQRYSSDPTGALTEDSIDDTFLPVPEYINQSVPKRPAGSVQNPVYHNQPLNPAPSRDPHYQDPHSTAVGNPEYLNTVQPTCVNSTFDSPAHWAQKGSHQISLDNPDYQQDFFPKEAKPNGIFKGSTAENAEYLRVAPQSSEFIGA

SMILES	IC50 (EGFR (human) [1]) [nM]	IC50 (EGFR (human) [2]) [nM]
CN(CCO)c1cc2c(Nc3ccc4c(cnn4Cc4ccccc4)c3)ncnc2cn1	300	36
CS(=O)(=O)CCNCc1ccc(-c2cc3c(Nc4ccc(OCc5ccccc5)cc4)ncnc3cn2)o1	430	25
CS(=O)(=O)CCNCc1ccc(-c2ccc3ncnc(Nc4ccc(S(=O)(=O)c5ccccc5)cc4)c3c2)o1	1130	29
Cc1nnc(-c2ccc3ncnc(Nc4ccc5c(cnn5Cc5cccc(F)c5)c4)c3c2)o1	830	26
